Reference: the NIST ThermoML archive (doi:10.1021/je100896n)

Conditions: Fluid (supercritical or subcritical phases), Pulse-echo method

C=C(F)C(F)(F)F [2,3,3,3-tetrafluoro-1-propene]
Conditions	speed of sound [m/s]
259.99 K, 4968 kPa	655.69
260 K, 1989 kPa	632.05
260 K, 3044 kPa	640.57
260 K, 4057 kPa	648.57
260 K, 5993 kPa	663.37
285 K, 4006 kPa	546.27
285 K, 5983 kPa	565.09
285.01 K, 2033 kPa	525.9
285.01 K, 3011 kPa	536.18
285.01 K, 5090 kPa	556.71
310 K, 5016 kPa	456.81
310 K, 6057 kPa	469.1
310.01 K, 2013 kPa	415.62
310.01 K, 3042 kPa	430.67
310.01 K, 4019 kPa	444
334.98 K, 5937 kPa	371.38
335 K, 2073 kPa	293.74
335 K, 3039 kPa	317.18
335 K, 3985 kPa	336.92
335 K, 5008 kPa	355.82
359.94 K, 6062 kPa	275.99
359.96 K, 4997 kPa	248.55

F/C=C/C(F)(F)F [trans-1,3,3,3-tetrafluoropropene]
Conditions	speed of sound [m/s]
259.98 K, 1980 kPa	715.11
259.98 K, 3989 kPa	728.84
260 K, 6021 kPa	742.08
260 K, 8007 kPa	754.65
260.01 K, 10070 kPa	767.16
285 K, 1956 kPa	606.38
285 K, 4021 kPa	624.26
285 K, 6056 kPa	640.72
285 K, 8005 kPa	655.64
285 K, 9989 kPa	670.06
310 K, 2063 kPa	497.64
310 K, 3947 kPa	519.14
310 K, 10112 kPa	578.79
310.01 K, 6041 kPa	540.98
310.01 K, 8005 kPa	559.88
335 K, 7985 kPa	465.6
335 K, 10020 kPa	488.5
335.01 K, 2007 kPa	379.56
335.01 K, 4027 kPa	413.08
335.01 K, 5978 kPa	440.56
360 K, 6047 kPa	340.1
360.02 K, 3998 kPa	296.31
360.03 K, 8052 kPa	373.95
360.03 K, 10036 kPa	402.5
